Legend:
[1] = biological target: T1, Angiotensin-converting enzyme (Oryctolagus cuniculus, UniProt P12822); experiment: Inhibitory concentration against angiotensin converting enzyme (ACE)
T1 sequence (P12822 whole entry): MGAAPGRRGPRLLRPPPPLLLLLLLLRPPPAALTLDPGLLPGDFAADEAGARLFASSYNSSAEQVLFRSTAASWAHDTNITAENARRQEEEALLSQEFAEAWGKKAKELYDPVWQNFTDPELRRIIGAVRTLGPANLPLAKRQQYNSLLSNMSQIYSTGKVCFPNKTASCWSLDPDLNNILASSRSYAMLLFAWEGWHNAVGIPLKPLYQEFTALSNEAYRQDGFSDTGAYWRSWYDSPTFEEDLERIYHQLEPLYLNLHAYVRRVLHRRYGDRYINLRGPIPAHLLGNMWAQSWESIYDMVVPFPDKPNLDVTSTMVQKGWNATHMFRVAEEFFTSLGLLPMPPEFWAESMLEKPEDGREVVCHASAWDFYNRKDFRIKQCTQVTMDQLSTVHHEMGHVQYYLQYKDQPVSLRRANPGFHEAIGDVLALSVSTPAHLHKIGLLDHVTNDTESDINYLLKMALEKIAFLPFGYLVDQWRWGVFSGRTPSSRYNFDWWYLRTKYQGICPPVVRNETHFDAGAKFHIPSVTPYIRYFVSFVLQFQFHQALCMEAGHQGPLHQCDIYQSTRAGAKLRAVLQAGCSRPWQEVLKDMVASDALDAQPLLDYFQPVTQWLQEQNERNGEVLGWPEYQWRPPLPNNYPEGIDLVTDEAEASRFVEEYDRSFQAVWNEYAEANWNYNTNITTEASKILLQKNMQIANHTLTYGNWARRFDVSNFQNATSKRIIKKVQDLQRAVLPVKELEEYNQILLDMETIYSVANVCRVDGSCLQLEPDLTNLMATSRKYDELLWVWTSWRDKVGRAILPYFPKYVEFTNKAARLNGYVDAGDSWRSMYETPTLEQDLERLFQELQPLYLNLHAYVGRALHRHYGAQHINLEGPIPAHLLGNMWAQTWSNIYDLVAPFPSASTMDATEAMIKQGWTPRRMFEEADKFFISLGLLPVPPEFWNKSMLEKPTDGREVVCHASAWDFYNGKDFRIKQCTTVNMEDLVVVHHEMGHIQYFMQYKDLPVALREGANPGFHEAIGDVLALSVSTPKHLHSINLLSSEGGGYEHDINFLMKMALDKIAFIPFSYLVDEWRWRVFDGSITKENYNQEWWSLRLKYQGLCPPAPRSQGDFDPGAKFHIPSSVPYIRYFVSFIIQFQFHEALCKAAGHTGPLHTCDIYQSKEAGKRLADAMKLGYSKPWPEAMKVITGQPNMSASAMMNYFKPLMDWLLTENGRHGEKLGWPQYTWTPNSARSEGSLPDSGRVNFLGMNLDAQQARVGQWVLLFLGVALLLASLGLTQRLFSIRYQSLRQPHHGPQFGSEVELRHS

[2] = biological target: T1, Angiotensin-converting enzyme; experiment: Inhibitory concentration against angiotensin converting enzyme (ACE); No activity in experimental concentration range

| IC50 [1] | IC50 [2] | SMILES |
| --- | --- | --- |
| 5 µM | – | O=C(N[C@@H](Cc1ccccc1)C(=O)C[C@@H](O)C(=O)N1CCC[C@H]1C(=O)O)c1ccccc1 |
| – | Not Active | O=C(N[C@@H](Cc1ccccc1)C1=NO[C@H](C(=O)N2c3ccccc3C[C@H]2C(=O)O)C1)c1ccccc1 |
| 100 µM | – | O=C(N[C@@H](Cc1ccccc1)C(=O)C[C@H](O)C(=O)N1CCC[C@H]1C(=O)O)c1ccccc1 |
| – | Not Active | O=C(N[C@@H](Cc1ccccc1)C1=NO[C@H](C(=O)N2CCC[C@H]2C(=O)O)C1)c1ccccc1 |
| 5 µM | – | O=C(N[C@@H](Cc1ccccc1)C(=O)C[C@H](O)C(=O)N1c2ccccc2C[C@H]1C(=O)O)c1ccccc1 |
| 0.09 µM | – | O=C(N[C@@H](Cc1ccccc1)C(=O)C[C@@H](O)C(=O)N1c2ccccc2C[C@H]1C(=O)O)c1ccccc1 |
| – | Not Active | O=C(N[C@@H](Cc1ccccc1)C1=NO[C@@H](C(=O)N2CCC[C@H]2C(=O)O)C1)c1ccccc1 |
| > 1000 µM | – | O=C(N[C@@H](Cc1ccccc1)C1=NO[C@@H](C(=O)N2c3ccccc3C[C@H]2C(=O)O)C1)c1ccccc1 |

From ChEMBL document CHEMBL1150551, “Novel angiotensin converting enzyme inhibitors containing -hydroxy ketomethylene dipeptide isosteres” (Bioorg Med Chem Lett, 1994)
